Data reported in US12201668B2, “Adiponectin peptidomimetics formulations” (ALLYSTA PHARMACEUTICALS, INC., priority 2018, dated 2025).
Non-standard residues stand in square brackets, D forms with d. Residues, ends and D or L forms follow the SMILES beside them. Nva = CCC[C@H](N)C(=O)O

Key:
[1] = tested on: rabbit atropine-induced dry eye model; experiment: Corneal epithelial fluorescein staining in atropine-induced dry eye; format: in vivo, NZW rabbits
Description: (§1) The purpose of this study was to evaluate the efficacy of a topical ALY688 ophthalmic formulation according Formula 22 in Example 2 in a rabbit atropine-induced dry eye model.
(§2) Clinical evaluations of corneal fluorescein staining, tear break-up time and tear volume were determined at five timepoints during the 14 day dosing period. Pre-dose ophthalmic anterior segment slit-lamp exams with corneal fluorescein staining, Tear Volume (TV) and Tear Break-Up Time (TBUT) assessments were performed. Animals were assigned to treatment groups such that the average baseline TV and TBUT values were approximately equal across groups.
(§3) Study Groups were assigned as follows: • Group 1: Atropine+ALY688 0.4% ophthalmic TID, (n=6) • Group 2: Atropine+Vehicle ophthalmic TID, (n=6) • Group 3: Atropine only (n=4)
(§4) Test article dosing began on Day −1.
(§5) Atropine eye drops (TID) began on Day 0.
(§6) Dry eye evaluations were performed on Days 1, 3, 7, 10, and 13.
Corneal epithelial staining: Corneal staining was assessed immediately after the TBUT measurement, after rinsing excess fluorescein. Fluorescein uptake was graded according to the NEI/Industry Grading System, in 5 separate areas of the cornea using a 0-3 grading scale maximum score: 15). Total staining score was calculated for each eye.

[2] = tested on: rabbit atropine-induced dry eye model; experiment: Atropine-induced dry eye in rabbits, overall conclusion; format: in vivo, NZW rabbits
Description: as §1, §2, §3, §4, §5, §6
The evaluator was masked as to treatment group for all assessments.

[3] = Solubility of the peptide in acetate buffer formulation; format: physicochemical
Description: Vehicle was prepared by dissolving propylene glycol (1.77 g) and Tyloxapol (0.1 g) in 97 mL of 35 mM of Acetic Acid/Sodium Acetate buffer, pH 4.3-4.5 by mixing until uniform. The peptide D-Asn-Ile-Pro-Nva-Leu-Tyr-D-Ser-Phe-Ala-D-Ser-NH2 (API, also referred to as ALY688 or ALY-688 herein) (1.0 g) was added to the vehicle and mixed until dissolved. The pH was adjusted with small amounts of Acetic Acid or Sodium Hydroxide. The formulation was sterile-filtered.
A concentration of 12 mg/g Acetate buffer gave a clear solution at a pH 4.5.

[4] = tested on: rabbit atropine-induced dry eye model; experiment: Slit-lamp examination of the anterior segment (McDonald-Shattuck) in atropine-induced dry eye study; format: in vivo, NZW rabbits; conditions: ALY688 0.4% ophthalmic TID (Formula 22); baseline and Day 13
Description: as §1, §2, §3
Examinations: Slit-lamp examinations of the anterior segment were performed at baseline and on Day 13 according to the McDonald-Shattuck Scoring System including conjunctival congestion, swelling, and discharge, corneal opacity, pannus, anterior chamber cells and flare, iris, light reflex, and lens.

[5] = tested on: rabbit atropine-induced dry eye model; experiment: Tear Volume (TV, Schirmer Tear Test strips) in atropine-induced dry eye; format: in vivo, NZW rabbits
Description: as §1, §2, §3, §4, §5, §6
Tear Volume (TV): Tear volume was measured using Schirmer Tear Test strips (Intervet, Inc., Summit, NJ), by placing the strip into the lower fornix for 60 seconds and recording the mm distance of the wetted area.

[6] = tested on: rabbit atropine-induced dry eye model; experiment: Tear Break-Up Time (TBUT) in atropine-induced dry eye; format: in vivo, NZW rabbits
Description: as §1, §2, §3, §4, §5, §6
Tear Breakup Time (TBUT): TBUT was determined after instillation of 6 μL of 2% sodium fluorescein in sterile saline onto the lower eyelid. After manually blinking the eye, the time for black spots or streaks to appear on the cornea under cobalt filter illumination was recorded. The procedure was conducted three times consecutively, and the average of three readings was used.

[7] = integrated AUC response vs baseline, p<0.005, FIG. 4

concentration that gave a clear solution ([3]; Acetate buffer, pH 4.5): 12 mg/g
solubility of the peptide ([3]; formulation of Example 1): significantly increased
anterior segment slit-lamp exam findings related to test article [4]: no abnormal findings
SMILES: CCC[C@H](NC(=O)[C@@H]1CCCN1C(=O)[C@@H](NC(=O)[C@H](N)CC(N)=O)[C@@H](C)CC)C(=O)N[C@@H](CC(C)C)C(=O)N[C@@H](Cc1ccc(O)cc1)C(=O)N[C@H](CO)C(=O)N[C@@H](Cc1ccccc1)C(=O)N[C@@H](C)C(=O)N[C@H](CO)C(N)=O [ALY688, D-Asn-Ile-Pro-Nva-Leu-Tyr-D-Ser-Phe-Ala-D-Ser-NH2] (H-[dN]IP[Nva]LY[dS]FA[dS]-NH2; N-terminus assumed)
corneal fluorescein staining vs vehicle control group ([1]; ALY688 0.4% TID, all evaluation timepoints, statistically significant on Days 1, 3, 10 (p<0.05)): lower
corneal staining, integrated analysis at all post-baseline timepoints vs vehicle [1, 7]: highly statistically significant improvement
reduction of dry eye signs ([2]; ALY688 ophthalmic solution 0.4% TID, 14 day dosing): highly effective at reducing dry eye signs
onset of effects ([2]; after initiation of ALY688 treatment): as early as two days after initiation
Tear Volume vs vehicle group on Day 13 ([5]; ALY688 0.4% TID, Day 13 (p=0.01), borderline (p=0.08) on Days 1 and 7): statistically significantly higher
Tear Volume vs vehicle control group ([5]; ALY688 0.4% TID, all timepoints): consistently higher
Tear Volume, integrated analysis at all post-baseline timepoints vs vehicle [5, 7]: highly statistically significant improvement
TBUT decrease ([6]; ALY688 0.4% TID, Day 1 of atropine treatment (vehicle group 50%)): 32%
TBUT level by Day 7 ([6]; ALY688 0.4% TID, Day 7): returned to baseline TBUT levels
TBUT compared to vehicle ([6]; ALY688 0.4% TID, Days 7, 10 and 13 (p<0,01)): statistically significant higher
TBUT level through the remainder of the study ([6]; ALY688 0.4% TID, after Day 7 to Day 13): maintained normal TBUT levels
TBUT compared to atropine-only group ([6]; ALY688 0.4% TID, all post-baseline days, 2-sample two-tailed t-test): statistically significantly higher
TBUT, integrated analysis at all post-baseline timepoints vs vehicle [6, 7]: highly statistically significant improvement
